Here are results for 3 compounds from EP0334956A1, “HEMOLYSIS INHIBITOR AND MEDICAL RESIN COMPOSITION, MEDICAL IMPLEMENT, AND BLOOD-PRESERVING FLUID CONTAINING THE SAME” (KAO CORPORATION, priority 1986, dated 1988).

Data set [1] has as its system human concentrated red cells. Put plainly: Hemolysis of stored CRC, reagent added as Tween 80/physiological saline emulsion; plasma hemoglobin by TMB method. Type of data set: cell-based. Particulars: final concentration 0.5 mM, emulsion, 4°C, 4 weeks. As to the method: Isopropyl isotridecyl maleate was added to a 2000ug/ml polyoxyethylene monooleate (reagent-grade product of Wako Junyaku K.K. marketed under trademark designation of "Tween 80")/physiological saline mixed solution in such an amount to be contained therein in a final concentration of 4mM. A 0.2ml aliquot of the resultant emulsion was added to a human concentrated red cells (hereinafter referred to as "CRC") adjusted in advance to a hematocrit value of about 70% so as to be contained therein in a final concentration indicated in Table 1. The resulting liquid was placed in a stoppered polypropylene tube and left standing at rest at 4°C for 4 weeks. At the end of this standing, it was tested for plasma hemoglobin concentration by the TMB method (Clin. Chem., 23, 749-(1977)).
An emulsion was prepared by following the procedure of Example 1, except that isopropyl decyl maleate was used in place of isopropyl-isotridecyl maleate. A CRC sample incorporating the emulsion was left standing and thereafter tested for plasma hemoglobin concentration.
Emulsions were prepared by following the procedure of Excample 1, except that di-2-ethylhexyl phthalate (Control 1) and diisopropyl maleate, a carboxylic ester compound deviating from the scope of the present invention (Control 2) were respectively used in place of isopropyl isotridecyl maleate. CRC samples severally incorporating the emulsions were left standing and, thereafter, tested for plasma hemoglobin concentration.
Glycerine-l-butyl-3-isostearyl ether was added to a 2000 ug/ml polyoxyethylene monooleate (regent-grade product of Wako Junyaku K.K. marketed under trademark designation of "Tween 80")/ physiological saline mixed solution so as to be contained therein in a final concentration of 4 mM. A 0.2ml aliquot of the resultant emulsion was added to CRC adjusted in advance to a hematocrit value of about 70% so as to be contained therein in a final concentration indicated in Table 3. The resultant liquid was placed in a stoppered polypropylene tube and left standing at 4°C for 4 weeks. Thereafter, it was tested for plasma hemoglobin concentration by following the procedure of Example 1.
An emulsion was prepared by following the procedure of Example 5, except that glycerine-1,3-dioctyl ether was used in place of glycerine- l-butyl-3-isostearyl ether. A CRC sample incorporating the resultant emulsion was left standing and, thereafter, tested for plasma hemoglobin concentration. Controls 7 and 8
Emulsions were prepared by following the procedure of Example 5, except that di-2-ethylhexyl phthalate (Control 7) and glycerine monooctyl ether, an ether compound deviating from the scope of the present invention, (Control 8) were respectively used in place of glycerine-l-butyl-3-isostearyl ether. CRC samples incorporating the emulsions were left standing and, thereafter, tested for plasma hemoglobin concentration.
Isopropyl isolaurate was dispersed in a 2000 ug/ml poloxyethylene monooleate (reagent-grade product of Wako Junyaku K.K. marketed under trademark designation of "Tween 80")/physiological saline mixed solution so as to be contained therein in a concentration of 4 mM. A 0.2-ml aliquot of the resultant emulsion was added to CRC adjusted in advance to a hematocrit value of about 70% so as to be contained therein in a final concentration indicated in Table 5. The resultant liquid was placed in a stoppered polypropylene tube and left standing at 4°C for 4 weeks. Thereafter, it was tested for plasma hemoglobin concentration by following the procedure of Example 1.
An emulsion was prepared by following the procedure of Example 9, except that 2-ethylhexyl isostearate was used in place of isopropyl isolaurate. A CRC sample incorporating the resultant emulsion was left standing and, thereafter, tested for plasma hemoglobin concentration.

Data set [2] concerns human platelet rich plasma. Put plainly: Platelet aggregation in platelet rich plasma (Aggrecoder). Type of data set: cell-based. Particulars: for activity at 400 µM: Homo sapiens, Platelet, 2 h, 40 mM methanol solution added in 1/100, room temperature 2 hours, relative to blank. The procedure: A 40 mM methanol solution of isopropyl isotridecyl maleate (Example 13), a 40 mM methanol solution of glycerine-l-butyl-3-isostearyl ether (Example 14), a 40 mM methanol solution of isopropyl isolaurate (Example 15), a 40 mM methanol solution of di-2-ethylhexyl phthalate (Control 19) and methanol containing no added compound (Control 20) were severally added to a human platelet rich plasma (count of platelets about 300,000/mm ) in a fixed amount of 1/100, left standing at room temperature for 2 hours, and tested for platelet aggregation by the use of an instrument (product of Kyoto Daiichikagaku K.K. marketed under "Aggrecoder").
The percentage of transmittance of light through the solution of platelet rich plasma containing a given sample to the maximum transmittance of light through the same solution of platelet rich plasma not containing the sample (blank) was reported as the ratio of aggregation of the sample. As aggregation inducers, 5 µM ADP (adenosine diphosphoric acid) and 5 ug/ml collagen were used.

The test system of the next data set is platelets. Particulars: Jouranl of Japan blood Transfusion Society, 28(3) 282 (1981); cited from earlier work.
Another data set relates to erythrocytes. As to conditions: dissolving from flexible vinyl chloride resin container into preserved blood; Blood (1984); cited from earlier work.
Data set [3] has as its system human platelet rich plasma. Type of data set: cell-based. The procedure: To determine the effects brought about on platelets by the compounds used in Examples 16 through 18, the test for recovery of function of platelets was carried out by the following procedure.
First, a solution of 20,000 ppm of isopropyl decyl maleate in methanol (Example 19), a solution of 20,000 ppm of isopropyl tetradecyl maleate in methanol (Example 20), a solution of 20,000 ppm of isopropyl decyl itaconate in methanol (Example 21), a solution of 20,000 ppm of di-2-ethylhexyl maleate in methanol (Control 24), a solution of 20,000 ppm of di-2-ethylhexyl phthalate in methanol (Control 25), a solution of 20,000 ppm of dinormal decyl phthalate in methanol (Control 26), and methanol containing no added compound (blank) were prepared. These solutions were severally added to human […] in a fixed amount of 1/100. […]
To determine the effects exerted on platelets by 2-ethylhexyl isostearate used in Example 24 and 2-ethylhexyl 2-ethylhexanoate used in Example 25, a test for the recovery of function of platelets was carried out by following the procedure of Examples 19 through 21. […] The procedure of Examples 19 through 21 was repeated on these solutions to determined maximum capacity for aggregation with respect to 50µM ADP and 10µg/ml collagen in the presence of 0.2 mg of fibrinogen per ml.

Each structure is given as a SMILES string. Where two headings read alike, the source gives them in different places.

Consider `CCCCC(CC)COC(=O)c1ccccc1C(=O)OCC(CC)CCCC` (stereo not shown) [Di-2-ethylhexyl phthalate, reference compound], for which the “Hemoglobin concentration in plasma” value in data set [1] (Table 1) worked out at 41 Mg/ml; in data set [1] (Table 3) it was 62 mg/mL; in data set [1] (Table 5), 35 mg/mL. In addition, the activity at 400 µM in data set [2] (read-out: Ratio of platelet aggregation, aggregation inducer 5 µM ADP) was 92.1%; in data set [2] (read-out: Ratio of platelet aggregation, aggregation inducer 5 µg/ml collagen), 89.6%. Also, the “effect on aggregating ability of platelets (in words)” value was “produced a discernible effect of curbing the recovery of the aggregating ability of platelets” in data set [2] (summary of Table 7) and “hinders the aggregating ability of platelets” with platelets. The “effect on hemolysis of erythrocytes (in words)” value with erythrocytes is listed as “serves to hinder the hemolysis of erythrocytes”.
For the compound `CCCCC(CC)COC(=O)C(CC)CCCC` (stereo not shown) [2-ethylhexyl 2-ethylhexanoate], the “action on recovery of ability of platelet aggregation (in words)” value in data set [3] is recorded as “produced no discernible action to curb recovery of the ability of platelet aggregation”.
Still for that read-out and setting: for `CCCCC(CC)COC(=O)CCCCCCCCCCCCCCC(C)C` (stereo not shown) [2-ethylhexyl isostearate] the value was “produced no discernible action to curb recovery of the ability of platelet aggregation”.
